Targets include ABL2 (Homo sapiens, UniProt P42684); BRAF(V600E) (Homo sapiens, UniProt P15056, V600E); CLK1 (Homo sapiens, UniProt P49759); CSK (Homo sapiens, UniProt P41240); FLT4 (Homo sapiens, UniProt P35916); GSK3B (Homo sapiens, UniProt P49841); HCK (Homo sapiens, UniProt P08631); RIOK2 (Homo sapiens, UniProt Q9BVS4); SYK (Homo sapiens, UniProt P43405); TIE1 (Homo sapiens, UniProt P35590); TNK2 (Homo sapiens, UniProt Q07912).

Test in all cases: biochemical
Set-up in all cases: DiscoveRx KINOMEscan active site-directed competition binding; percent of control kinase bound to immobilised ligand

The next test has as its target T1, GRK2 (Homo sapiens, UniProt P25098).
T1 sequence (P25098 1-689): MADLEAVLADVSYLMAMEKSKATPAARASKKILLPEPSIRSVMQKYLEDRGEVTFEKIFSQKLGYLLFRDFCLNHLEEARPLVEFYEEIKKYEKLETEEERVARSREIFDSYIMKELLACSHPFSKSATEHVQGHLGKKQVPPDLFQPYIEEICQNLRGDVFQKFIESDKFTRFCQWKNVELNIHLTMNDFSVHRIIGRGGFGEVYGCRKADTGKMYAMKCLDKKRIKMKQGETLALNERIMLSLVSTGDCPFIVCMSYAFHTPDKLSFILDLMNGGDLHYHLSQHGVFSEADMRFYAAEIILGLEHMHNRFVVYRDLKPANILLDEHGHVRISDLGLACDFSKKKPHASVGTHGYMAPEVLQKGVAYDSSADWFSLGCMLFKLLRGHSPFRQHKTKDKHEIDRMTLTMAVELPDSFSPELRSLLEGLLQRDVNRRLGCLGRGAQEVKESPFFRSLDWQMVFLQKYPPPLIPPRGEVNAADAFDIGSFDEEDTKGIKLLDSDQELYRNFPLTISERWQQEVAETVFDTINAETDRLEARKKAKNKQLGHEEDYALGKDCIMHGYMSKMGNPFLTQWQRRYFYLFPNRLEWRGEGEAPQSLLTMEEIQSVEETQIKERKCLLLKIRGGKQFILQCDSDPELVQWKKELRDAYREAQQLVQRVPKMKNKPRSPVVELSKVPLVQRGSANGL

The next test concerns the target T2, JNK3 (Homo sapiens, UniProt P53779).
T2 construct: gene MAPK10

For another test, the target named is T3, MEK1 (Homo sapiens, UniProt Q02750).
T3 construct: gene MAP2K1

The target of another test is T4, NDR1 (Homo sapiens, UniProt Q15208).
T4 construct: gene STK38
T4 sequence (Q15208 whole entry): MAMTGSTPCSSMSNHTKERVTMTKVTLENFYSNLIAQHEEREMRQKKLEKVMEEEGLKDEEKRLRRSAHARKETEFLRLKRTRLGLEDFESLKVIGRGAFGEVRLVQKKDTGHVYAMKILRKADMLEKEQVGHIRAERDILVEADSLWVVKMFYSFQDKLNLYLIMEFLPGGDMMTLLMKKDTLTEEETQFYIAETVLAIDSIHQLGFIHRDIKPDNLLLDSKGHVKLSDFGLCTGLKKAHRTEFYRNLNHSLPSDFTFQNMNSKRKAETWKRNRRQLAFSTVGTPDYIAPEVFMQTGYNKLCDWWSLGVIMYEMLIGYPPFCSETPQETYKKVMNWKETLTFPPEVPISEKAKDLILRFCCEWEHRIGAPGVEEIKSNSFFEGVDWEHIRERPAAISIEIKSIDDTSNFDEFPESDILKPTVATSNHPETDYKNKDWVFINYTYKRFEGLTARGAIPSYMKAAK

Test [1] concerns the target T5, RPS6KA4(Kin.Dom.1-N-terminal) (Homo sapiens, UniProt O75676).
T5 construct: Kin.Dom.1-N-terminal

In test [2] the target is T6, RSK2(Kin.Dom.1-N-terminal) (Homo sapiens, UniProt P51812).
T6 construct: gene RPS6KA3; Kin.Dom.1-N-terminal

Where [3] appears, read: read-out: Rucaparib / %Ctrl @ 10000nM, binding competition, % of control.
The mark [4] stands for this setting: read-out: Talazoparib (BMN 673) / %Ctrl @ 10000nM.
The mark [5] stands for this setting: read-out: Niraparib (MK-4827) / %Ctrl @ 10000nM.
Setting [6] is: read-out: Olaparib / %Ctrl @ 10000nM.

Where two headings read alike, the source gives them in different places.

Drawing on publication PMC7026418, “The kinase polypharmacology landscape of clinical PARP inhibitors” (Scientific Reports, 2020), this text covers percent of control binding for four molecules.

Sequence of BRAF(V600E) (P15056 whole entry V600E): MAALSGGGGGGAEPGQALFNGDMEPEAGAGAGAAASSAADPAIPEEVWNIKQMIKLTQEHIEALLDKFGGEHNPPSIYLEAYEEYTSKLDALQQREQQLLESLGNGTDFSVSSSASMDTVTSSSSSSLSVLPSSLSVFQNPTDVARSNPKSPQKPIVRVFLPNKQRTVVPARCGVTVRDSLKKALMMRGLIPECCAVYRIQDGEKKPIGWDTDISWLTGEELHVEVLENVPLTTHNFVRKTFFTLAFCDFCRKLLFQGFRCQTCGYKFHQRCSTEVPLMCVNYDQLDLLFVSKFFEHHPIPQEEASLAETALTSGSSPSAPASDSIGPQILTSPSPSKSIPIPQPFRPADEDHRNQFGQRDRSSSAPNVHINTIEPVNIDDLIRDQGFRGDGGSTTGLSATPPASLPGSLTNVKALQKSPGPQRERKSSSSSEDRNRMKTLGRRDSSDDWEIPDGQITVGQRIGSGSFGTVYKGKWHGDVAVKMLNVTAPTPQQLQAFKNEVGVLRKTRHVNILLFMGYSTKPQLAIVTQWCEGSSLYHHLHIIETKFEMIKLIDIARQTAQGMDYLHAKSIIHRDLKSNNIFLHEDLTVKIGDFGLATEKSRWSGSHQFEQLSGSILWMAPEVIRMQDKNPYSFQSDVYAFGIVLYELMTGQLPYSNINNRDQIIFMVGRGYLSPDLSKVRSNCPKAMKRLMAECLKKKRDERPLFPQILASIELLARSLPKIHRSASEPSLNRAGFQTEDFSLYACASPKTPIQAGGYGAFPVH
Sequence of CLK1 (P49759 whole entry): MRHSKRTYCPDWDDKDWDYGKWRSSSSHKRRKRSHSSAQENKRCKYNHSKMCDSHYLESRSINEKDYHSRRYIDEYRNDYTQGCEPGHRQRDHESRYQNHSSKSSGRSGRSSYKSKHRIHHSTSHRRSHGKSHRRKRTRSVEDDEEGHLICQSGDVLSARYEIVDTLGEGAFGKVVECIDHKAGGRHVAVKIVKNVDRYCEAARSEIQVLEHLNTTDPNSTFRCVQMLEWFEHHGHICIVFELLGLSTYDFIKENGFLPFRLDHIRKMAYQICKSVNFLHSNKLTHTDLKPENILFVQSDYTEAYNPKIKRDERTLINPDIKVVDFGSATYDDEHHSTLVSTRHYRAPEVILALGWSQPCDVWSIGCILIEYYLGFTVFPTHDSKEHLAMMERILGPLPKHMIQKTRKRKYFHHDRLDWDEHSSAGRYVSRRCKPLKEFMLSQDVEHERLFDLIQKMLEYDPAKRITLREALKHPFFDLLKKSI
Sequence of FLT4 (P35916 whole entry): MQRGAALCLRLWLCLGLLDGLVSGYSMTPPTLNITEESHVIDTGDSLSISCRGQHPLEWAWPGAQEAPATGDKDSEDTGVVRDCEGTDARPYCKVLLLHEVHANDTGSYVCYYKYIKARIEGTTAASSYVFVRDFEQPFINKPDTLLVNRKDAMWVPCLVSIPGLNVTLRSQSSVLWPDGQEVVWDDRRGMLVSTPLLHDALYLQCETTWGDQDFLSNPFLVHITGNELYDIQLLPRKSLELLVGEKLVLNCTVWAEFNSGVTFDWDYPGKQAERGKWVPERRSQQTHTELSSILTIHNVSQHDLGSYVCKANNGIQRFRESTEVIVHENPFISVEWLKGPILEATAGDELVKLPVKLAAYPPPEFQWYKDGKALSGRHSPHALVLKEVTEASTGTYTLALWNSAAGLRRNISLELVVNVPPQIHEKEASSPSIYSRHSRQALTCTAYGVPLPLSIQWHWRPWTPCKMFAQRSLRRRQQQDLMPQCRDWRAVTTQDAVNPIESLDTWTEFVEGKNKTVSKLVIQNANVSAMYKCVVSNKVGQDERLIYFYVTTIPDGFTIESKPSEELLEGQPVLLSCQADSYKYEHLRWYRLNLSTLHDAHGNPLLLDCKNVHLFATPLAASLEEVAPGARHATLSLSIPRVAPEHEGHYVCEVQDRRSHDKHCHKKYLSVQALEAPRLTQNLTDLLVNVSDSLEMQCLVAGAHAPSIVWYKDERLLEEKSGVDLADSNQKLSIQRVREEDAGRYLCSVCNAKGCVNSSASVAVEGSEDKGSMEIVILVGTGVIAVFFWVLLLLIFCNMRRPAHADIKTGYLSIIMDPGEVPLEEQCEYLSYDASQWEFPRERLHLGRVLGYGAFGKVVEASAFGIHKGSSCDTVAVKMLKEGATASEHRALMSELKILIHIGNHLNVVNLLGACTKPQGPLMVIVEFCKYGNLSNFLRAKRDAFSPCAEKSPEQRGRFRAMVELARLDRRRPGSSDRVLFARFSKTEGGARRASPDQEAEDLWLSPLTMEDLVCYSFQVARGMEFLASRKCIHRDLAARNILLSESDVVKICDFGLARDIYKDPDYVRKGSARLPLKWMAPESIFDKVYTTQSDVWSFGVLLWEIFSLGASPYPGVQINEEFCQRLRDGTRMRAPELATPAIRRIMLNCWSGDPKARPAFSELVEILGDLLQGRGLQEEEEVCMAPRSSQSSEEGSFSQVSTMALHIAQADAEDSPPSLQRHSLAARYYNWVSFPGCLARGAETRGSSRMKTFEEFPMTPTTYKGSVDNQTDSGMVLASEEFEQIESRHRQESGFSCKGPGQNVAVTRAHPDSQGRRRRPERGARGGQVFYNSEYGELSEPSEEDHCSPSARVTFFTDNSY
Sequence of CSK (P41240 whole entry): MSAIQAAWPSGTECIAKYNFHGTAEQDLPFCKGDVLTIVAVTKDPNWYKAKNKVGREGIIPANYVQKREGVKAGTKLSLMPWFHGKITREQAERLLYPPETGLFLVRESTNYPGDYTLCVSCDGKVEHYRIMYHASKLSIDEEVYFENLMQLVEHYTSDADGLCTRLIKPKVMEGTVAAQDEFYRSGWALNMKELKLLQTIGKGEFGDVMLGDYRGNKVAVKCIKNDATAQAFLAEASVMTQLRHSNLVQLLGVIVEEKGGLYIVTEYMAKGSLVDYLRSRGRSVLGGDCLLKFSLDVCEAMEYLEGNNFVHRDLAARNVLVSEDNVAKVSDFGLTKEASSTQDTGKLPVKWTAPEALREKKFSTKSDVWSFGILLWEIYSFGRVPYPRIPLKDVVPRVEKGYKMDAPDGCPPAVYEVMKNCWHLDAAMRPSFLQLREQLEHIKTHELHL
Sequence of HCK (P08631 whole entry): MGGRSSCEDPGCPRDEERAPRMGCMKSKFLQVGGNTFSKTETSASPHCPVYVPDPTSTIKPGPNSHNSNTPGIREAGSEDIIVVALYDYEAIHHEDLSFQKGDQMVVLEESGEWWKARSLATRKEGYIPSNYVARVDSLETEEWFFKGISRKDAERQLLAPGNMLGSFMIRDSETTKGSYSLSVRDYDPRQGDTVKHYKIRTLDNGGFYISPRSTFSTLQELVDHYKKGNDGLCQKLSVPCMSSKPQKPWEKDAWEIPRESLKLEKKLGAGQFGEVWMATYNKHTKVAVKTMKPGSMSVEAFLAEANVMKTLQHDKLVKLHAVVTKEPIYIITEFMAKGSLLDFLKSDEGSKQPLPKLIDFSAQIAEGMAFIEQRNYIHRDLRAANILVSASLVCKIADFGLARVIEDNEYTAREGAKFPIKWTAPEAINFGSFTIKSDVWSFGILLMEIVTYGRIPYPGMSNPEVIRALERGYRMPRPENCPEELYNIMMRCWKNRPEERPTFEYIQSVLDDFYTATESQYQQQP
T5 sequence (O75676 whole entry): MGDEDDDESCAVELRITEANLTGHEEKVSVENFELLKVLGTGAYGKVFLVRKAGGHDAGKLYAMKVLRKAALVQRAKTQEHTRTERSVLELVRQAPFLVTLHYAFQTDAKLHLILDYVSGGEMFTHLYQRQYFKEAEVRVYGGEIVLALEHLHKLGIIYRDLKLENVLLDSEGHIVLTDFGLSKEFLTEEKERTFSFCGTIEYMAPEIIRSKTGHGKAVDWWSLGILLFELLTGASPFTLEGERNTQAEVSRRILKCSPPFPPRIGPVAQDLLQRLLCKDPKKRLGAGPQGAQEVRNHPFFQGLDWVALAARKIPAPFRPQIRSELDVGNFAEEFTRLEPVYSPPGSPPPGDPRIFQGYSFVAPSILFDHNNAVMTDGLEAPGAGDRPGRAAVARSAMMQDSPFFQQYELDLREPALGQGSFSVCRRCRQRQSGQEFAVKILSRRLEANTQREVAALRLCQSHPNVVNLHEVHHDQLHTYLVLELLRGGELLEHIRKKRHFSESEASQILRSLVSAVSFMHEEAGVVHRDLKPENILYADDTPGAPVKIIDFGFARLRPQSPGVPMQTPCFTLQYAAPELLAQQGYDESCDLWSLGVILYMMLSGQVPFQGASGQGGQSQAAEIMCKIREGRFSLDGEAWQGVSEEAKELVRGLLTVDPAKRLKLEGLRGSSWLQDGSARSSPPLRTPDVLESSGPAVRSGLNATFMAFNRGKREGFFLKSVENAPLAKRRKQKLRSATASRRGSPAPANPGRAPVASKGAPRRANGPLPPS

Consider `CNCc1ccc(-c2[nH]c3cc(F)cc4c3c2CCNC4=O)cc1` [Rucaparib], for which the percent of control binding at 10 µM on ABL2 (setting [3]) was 100%; at BRAF(V600E) (setting [3]), 73%; at CLK1 (setting [3]) it was 37%; on CSK (setting [3]) it was 100%; at FLT4 (setting [3]), 95%; at GRK2 (setting [3]), 70%. Moreover, the percent of control binding at 10 µM was 89% on GSK3B (setting [3]); 74% at HCK (setting [3]); 71% on JNK3 (setting [3]); 69% on MEK1 (setting [3]); 69% on NDR1 (setting [3]); 69% at RIOK2 (setting [3]). The percent of control binding at 10 µM is 100% in test [1] (setting [3]); 52% in test [2] (setting [3]); 100% on SYK (setting [3]); 92% at TIE1 (setting [3]); 100% on TNK2 (setting [3]).

On to `Cn1ncnc1[C@H]1c2n[nH]c(=O)c3cc(F)cc(c23)N[C@@H]1c1ccc(F)cc1` [Talazoparib], for which the percent of control binding at 10 µM turned out to be 93% at ABL2 (setting [4]); 68% on BRAF(V600E) (setting [4]); 86% at CLK1 (setting [4]); 87% at CSK (setting [4]); 93% on FLT4 (setting [4]); 100% on GRK2 (setting [4]). Moreover, the percent of control binding at 10 µM at GSK3B (setting [4]) amounted to 100%; on HCK (setting [4]), 86%; at JNK3 (setting [4]), 91%; at MEK1 (setting [4]), 67%; on NDR1 (setting [4]) it was 72%; on RIOK2 (setting [4]), 100%. Also, the percent of control binding at 10 µM stood at 61% in [1] (setting [4]); 88% in test [2] (setting [4]); 85% at SYK (setting [4]); 100% at TIE1 (setting [4]); 97% on TNK2 (setting [4]).

With `NC(=O)c1cccc2cn(-c3ccc([C@@H]4CCCNC4)cc3)nc12` [Niraparib], the percent of control binding at 10 µM on ABL2 (setting [5]) amounted to 85%; at BRAF(V600E) (setting [5]), 100%; on CLK1 (setting [5]), 48%; on CSK (setting [5]), 90%; on FLT4 (setting [5]), 99%; at GRK2 (setting [5]), 97%. Further, the percent of control binding at 10 µM at GSK3B (setting [5]) was found to be 88%; at HCK (setting [5]) it was 70%; at JNK3 (setting [5]), 88%; at MEK1 (setting [5]), 79%; on NDR1 (setting [5]), 100%; on RIOK2 (setting [5]), 67%. Also, the percent of control binding at 10 µM in test [1] (setting [5]) came out at 100%; in [2] (setting [5]), 94%; at SYK (setting [5]) it was 82%; on TIE1 (setting [5]), 87%; on TNK2 (setting [5]), 91%.

For `O=C(c1cc(Cc2n[nH]c(=O)c3ccccc23)ccc1F)N1CCN(C(=O)C2CC2)CC1` [Olaparib], the percent of control binding at 10 µM stood at 100% at ABL2 (setting [6]); 87% on BRAF(V600E) (setting [6]); 99% at CLK1 (setting [6]); 99% on CSK (setting [6]); 97% at FLT4 (setting [6]); 79% on GRK2 (setting [6]). In addition, the percent of control binding at 10 µM at GSK3B (setting [6]) was determined as 98%; on HCK (setting [6]), 96%; at JNK3 (setting [6]) it was 86%; at MEK1 (setting [6]), 79%; at NDR1 (setting [6]) it was 100%; at RIOK2 (setting [6]), 84%. Further, the percent of control binding at 10 µM in [1] (setting [6]) came out at 100%; in [2] (setting [6]) it was 94%; at SYK (setting [6]), 100%; on TIE1 (setting [6]) it was 96%; at TNK2 (setting [6]), 95%.
